Assay results as given in ChEMBL document CHEMBL1149015, “New taxanes from Taxus brevifolia, 2” (1986).
≈ marks a conversion by molar mass, not a printed value.

System: KB
Assay: Cytotoxicity against human KB cells
Format: functional

For `CC(=O)O[C@H]1C(=O)[C@]2(C)[C@H](O)C[C@H]3OC[C@@]3(OC(C)=O)[C@H]2[C@H](OC(=O)c2ccccc2)[C@]2(O)C[C@H](OC(=O)[C@H](O)[C@@H](NC(=O)c3ccccc3)c3ccccc3)C(C)=C1C2(C)C`, the ED50 was 3 ×10⁻⁵ ug/ml.

For `CC(=O)O[C@@]12CO[C@@H]1C[C@H](O)[C@@]1(C)C(=O)C(=O)C3=C(C)[C@@H](OC(=O)[C@H](O)[C@@H](NC(=O)c4ccccc4)c4ccccc4)C[C@@](O)([C@@H](OC(=O)c4ccccc4)[C@H]21)C3(C)C`, the EC50 (Homo sapiens, KB, read-out: ED50 (the source's name)) was 0.02 µg/mL (≈ 0.0247 µM).

In the case of `CC(=O)O[C@H]1C(=O)[C@@]2(C)[C@H]([C@H](OC(=O)c3ccccc3)[C@]3(O)C[C@H](OC(=O)[C@H](O)[C@@H](NC(=O)c4ccccc4)c4ccccc4)C(C)=C1C3(C)C)[C@]1(OC(C)=O)CO[C@@H]1C[C@@H]2O` [PACLITAXEL], the ED50 is reported as 1 ×10⁻⁵ ug/ml.
